{
  "source": "patent US12252701B2",
  "about": "“Chimeric antigen receptor T cell therapy” (KITE PHARMA, INC., priority 2020, dated 2025)",
  "key": {"[1]": {"test_system": "phospho-STAT-1, -3 and -5 in purified CD14+ monocytes", "experiment": "Intracellular phospho-STAT-1, -3, -5 by BD PhosphoFlow in purified monocytes", "format": "cell-based, human", "settings": "for Monocyte-specific pSTAT1 signaling, inhibition / Monocyte-specific pSTAT3 signaling, inhibition / Monocyte-specific pSTAT5 signaling, inhibition: purified CD14+ monocytes", "description": "(§1) Further experiments were performed to look at impacts of JAK inhibitors on STAT phosphorylation in various immune cell subsets."}, "[2]": {"test_system": "phospho-STAT-1, -3 and -5 in CD4, CD8 T cells and monocytes (CAR T product, PBMCs)", "experiment": "Intracellular phospho-STAT-1, -3, -5 by flow cytometry in immune cell subsets of CAR T product and PBMCs", "format": "cell-based, human", "description": "as §1"}, "[3]": {"test_system": "NALM6.GFP.LUC.CD19 target cells", "experiment": "Serial killing assay of CAR-T, percent cytotoxicity by luciferase detection", "settings": "repeat stimulation rounds"}, "[4]": {"settings": "CAR T cell-derived supernatant, 30 min"}, "[5]": {"settings": "purified monocytes, CAR T derived cytokines/supernatant stimulation, 30 min"}},
  "data": [
    {"smiles": "Nc1nc2cccc(-c3ccc(CN4CCS(=O)(=O)CC4)cc3)n2n1", "note": "[GS-829845]", "values": [
      {"measurement": "Monocyte-specific pSTAT1 signaling, inhibition", "setting": "[1]; [4]", "result": 32, "unit": "%"},
      {"measurement": "Monocyte-specific pSTAT3 signaling, inhibition", "setting": "[1]; [4]", "result": 80, "unit": "%"},
      {"measurement": "Monocyte-specific pSTAT5 signaling, inhibition", "setting": "[1]; [4]", "result": 3, "unit": "%"},
      {"measurement": "Monocyte-specific pSTAT1 signaling, inhibition", "setting": "[1]; rh-GM-CSF-induced", "result": "na/ni"},
      {"measurement": "Monocyte-specific pSTAT3 signaling, inhibition", "setting": "[1]; rh-GM-CSF-induced", "result": "na/ni"},
      {"measurement": "Monocyte-specific pSTAT5 signaling, inhibition", "setting": "[1]; rh-GM-CSF-induced", "result": 0, "unit": "%"},
      {"measurement": "Monocyte-specific pSTAT1 signaling, inhibition", "setting": "[1]; rhIFNg-induced", "result": 61, "unit": "%"},
      {"measurement": "Monocyte-specific pSTAT3 signaling, inhibition", "setting": "[1]; rhIFNg-induced", "result": 100, "unit": "%"},
      {"measurement": "Monocyte-specific pSTAT5 signaling, inhibition", "setting": "[1]; rhIFNg-induced", "result": 100, "unit": "%"},
      {"measurement": "Monocyte-specific pSTAT1 signaling, inhibition", "setting": "[1]; rhIL6-induced", "result": "na/ni"},
      {"measurement": "Monocyte-specific pSTAT3 signaling, inhibition", "setting": "[1]; rhIL6-induced", "result": 33, "unit": "%"},
      {"measurement": "Monocyte-specific pSTAT5 signaling, inhibition", "setting": "[1]; rhIL6-induced", "result": "na/ni"},
      {"measurement": "pSTAT1 inhibition", "setting": "[1]; [5]", "result": 32, "unit": "%"},
      {"measurement": "pSTAT3 inhibition", "setting": "[1]; [5]", "result": 80, "unit": "%"},
      {"measurement": "Primary Cell IL-6 pSTAT1 signaling (% inhibition)", "setting": "[2]; CD4 CART cells", "result": 18, "unit": "%"},
      {"measurement": "Primary Cell IL-6 pSTAT3 signaling (% inhibition)", "setting": "[2]; CD4 CART cells", "result": 6, "unit": "%"},
      {"measurement": "Primary Cell IL-6 pSTAT5 signaling (% inhibition)", "setting": "[2]; CD4 CART cells", "result": 29, "unit": "%"},
      {"measurement": "Primary Cell IL-6 pSTAT1 signaling (% inhibition)", "setting": "[2]; CD8 CART cells", "result": 11, "unit": "%"},
      {"measurement": "Primary Cell IL-6 pSTAT3 signaling (% inhibition)", "setting": "[2]; CD8 CART cells", "result": 2, "unit": "%"},
      {"measurement": "Primary Cell IL-6 pSTAT5 signaling (% inhibition)", "setting": "[2]; CD8 CART cells", "result": 17, "unit": "%"},
      {"measurement": "effect on phosphorylated-STAT-1, -STAT-3 and -STAT5 levels", "setting": "[2]; IL-6 stimulation", "result": "only a fraction of the filgotinib suppression levels"},
      {"measurement": "Primary cell GM-CSF-pSTAT5, inhibition", "setting": "[2]; Monocytes within bulk PBMCs", "result": 3, "unit": "%"},
      {"measurement": "Primary Cell IL-6 pSTAT1 signaling (% inhibition)", "setting": "[2]; PBMC CD4 T cells", "result": 25, "unit": "%"},
      {"measurement": "Primary Cell IL-6 pSTAT3 signaling (% inhibition)", "setting": "[2]; PBMC CD4 T cells", "result": 15, "unit": "%"},
      {"measurement": "Primary Cell IL-6 pSTAT5 signaling (% inhibition)", "setting": "[2]; PBMC CD4 T cells", "result": 36, "unit": "%"},
      {"measurement": "Primary Cell IL-6 pSTAT1 signaling (% inhibition)", "setting": "[2]; PBMC CD8 T cells", "result": 10, "unit": "%"},
      {"measurement": "Primary Cell IL-6 pSTAT3 signaling (% inhibition)", "setting": "[2]; PBMC CD8 T cells", "result": 11, "unit": "%"},
      {"measurement": "Primary Cell IL-6 pSTAT5 signaling (% inhibition)", "setting": "[2]; PBMC CD8 T cells", "result": 24, "unit": "%"},
      {"measurement": "Primary Cell IL-6 pSTAT1 signaling (% inhibition)", "setting": "[2]; PBMC Monocytes", "result": 24, "unit": "%"},
      {"measurement": "Primary Cell IL-6 pSTAT3 signaling (% inhibition)", "setting": "[2]; PBMC Monocytes", "result": 17, "unit": "%"},
      {"measurement": "Primary Cell IL-6 pSTAT5 signaling (% inhibition)", "setting": "[2]; PBMC Monocytes", "result": 21, "unit": "%"},
      {"measurement": "Primary cell GM-CSF-pSTAT5, inhibition", "setting": "[2]; T cells within bulk PBMCs", "result": 16, "unit": "%"},
      {"measurement": "impact on CAR-T serial killing (percent cytotoxicity)", "setting": "[3]; E:T of 1:1, dose titration", "result": "enhance serial killing"},
      {"measurement": "impact on CAR-T serial killing (percent cytotoxicity)", "setting": "[3]; E:T of 1:3, dose titration", "result": "no impact"}
    ]}
  ]
}
